According to PMC3139112 (Journal of molecular biology, 2011):

Biological target: A3G (APOBEC3G) (Homo sapiens, UniProt Q9HC16)
Type: biochemical
Settings: 1 μM peptide (Fig. 3B)

Sequence of A3G (APOBEC3G) (Q9HC16 whole entry): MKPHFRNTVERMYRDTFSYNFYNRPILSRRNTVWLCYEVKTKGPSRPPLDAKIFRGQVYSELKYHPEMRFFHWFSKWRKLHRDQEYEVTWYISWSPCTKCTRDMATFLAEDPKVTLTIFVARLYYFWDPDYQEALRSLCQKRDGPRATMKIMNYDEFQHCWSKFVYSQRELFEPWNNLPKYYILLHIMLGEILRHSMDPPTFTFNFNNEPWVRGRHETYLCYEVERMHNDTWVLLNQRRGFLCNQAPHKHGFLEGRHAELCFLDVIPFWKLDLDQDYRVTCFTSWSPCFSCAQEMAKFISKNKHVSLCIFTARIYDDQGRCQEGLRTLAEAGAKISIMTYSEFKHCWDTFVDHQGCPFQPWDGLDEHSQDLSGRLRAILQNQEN

| Sequence | inhibition of A3G deaminase activity (peptide screen) |
| --- | --- |
| DCFSESAIRNAILGH [Vif113-127] | inhibited the A3G deaminase activity |
| DLADQLIHLYYFDCF [Vif101-115] | inhibited the A3G deaminase activity |
| GWFYRHHYESTHPRI [Vif37-51] | inhibited the A3G deaminase activity |
| IVWQVDRMRIRTWKS [Vif9-23] | inhibited the A3G deaminase activity |
